The source made the active and inactive calls.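 How the source made its calls: active means compounds giving half or more protection of infected cells from virus-caused growth loss, again on retest; inactive means the rest.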
System: CEM cells HIV-1 protection, formazan growth assay
Test: NCI AIDS Antiviral Assay
Conditions: for IC50: measured here: growth of uninfected CEM cells
How it was run: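 Five concentrations of each compound were applied to infected and uninfected human CEM cells. Protection from HIV-1 was judged from growth measured with a soluble formazan assay.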

| Structure (SMILES) | EC50 [µM] | IC50 [µM] | outcome |
| --- | --- | --- | --- |
| CCOC(=O)[C@@]12C[C@](/C=C/OC)(O[Si](C)(C)C)[C@@]13c1cc(OC)c(OC)cc1CCN3C(=O)C2O (stereo not given in full) | > 200 | > 200 |  |
| CSC1(C)CC2C(CC1N1CCCCC1)C2(C)C (stereo not given) | > 93.3 | 44.7 |  |
| COC(=O)CC(CC(=O)C(=O)OC)C(=O)OC (stereo not given) | > 251 | > 251 |  |
| Nc1ncnc2c1ncn2C(CO)OC(CO)CCP(=O)(O)O (stereo not given) | > 100 | > 100 |  |
| CC(C)N1C(C)[C@@H](c2ccccc2)O[P@]1(=O)CC1=CCCCC1 (stereo not given in full) |  |  | inactive |
| COC(=O)/C(=C(/C)c1ccco1)P(=O)(OC)OC | > 200 | > 200 |  |
| N#CCCN(CCO)CCO | > 200 | > 200 |  |
| CCOc1ccccc1NC(=O)CCC(=O)NN | > 145 | > 145 |  |
| S=C(NCc1ccccn1)N/N=C/c1ccccn1 | > 0.2 | 0.00794 |  |
| CN(C)CC1CCCC(CN(C)C)C1OC(=O)c1ccccc1 (stereo not given) |  |  | inactive |
| CCn1c(=O)nc2n(-c3ccc(SC)cc3)c3ccccc3nc-2c1=O |  |  | inactive |
| COc1cc(CNc2nc3ccccc3nc2C(=O)O)cc(OC)c1OC | > 200 | 74.1 |  |
| N#C/C(=C\c1ccccc1)C(NO)Nc1ccccc1 (stereo not given) | > 135 | 64.6 |  |
| CC(C)=CCCC(O)C1CCC2C3CCC4CCCCC4(C)C3CCC12C (stereo not given) | > 100 | 87.1 |  |
| CCC(C(=O)NC1CN2CCC1CC2)c1ccccc1 (stereo not given) | > 200 | 174 |  |
| O=C1CCC(N2C(=O)C3CC=CCC3C2=O)C(=O)N1 (stereo not given) | > 200 | > 200 |  |
| N#CCC(=O)N/N=C\c1ccc2c(c1)OCO2 | > 200 | > 200 |  |
| Cc1noc(NS(=O)(=O)c2ccc(NC(=S)N/C=C(\C#N)C(N)=O)cc2)c1C |  |  | inactive |
| CC(C)CN1CC(=O)N2CCCN2C(=O)C1 | > 407 | > 407 |  |
| CC(C)CC(C(N)=O)C(=O)NC(Cc1ccccc1)NC(=O)CNC(=O)OC(C)(C)C (stereo not given) | > 25.1 | > 25.1 |  |

| Structure (SMILES) | EC50 [µM] | IC50 [µM] | outcome |
| --- | --- | --- | --- |
| CCc1ccccc1NC(=O)CCc1nc(=S)[nH][nH]1 | > 912 | > 912 |  |
| ON(CCc1ccccn1)CCc1ccccn1 | > 200 | > 200 |  |
| Cc1cc(S(=O)(=O)N=C2N(Cc3ccccc3)CCN2Cc2ccccc2)c(S)cc1Cl | > 200 | > 200 |  |
| Clc1ccc(NC2=NCCN=C(Nc3ccc(Cl)cc3)SS2)cc1 | > 200 | 22.9 |  |
| N=C(N)n1ncc(Cl)c(Cl)c1=O | > 91.2 | 0.407 |  |
| CCN(CC)C(=S)N/N=C/c1cc([N+](=O)[O-])ccc1O | > 200 | 3.63 |  |
| COc1ccc(NC(=O)CC(=O)NNC(Sc2ccccc2)c2cc(N=Nc3ccc(Br)cc3)ccc2O)cc1 (stereo not given) |  |  | inactive |
| COCc1cn(C2CCC(CO)O2)c(=O)[nH]c1=O (stereo not given) | > 490 | 269 |  |
| CCOc1ccccc1/C=C1\NC(=O)N(/C=C2\C(=O)Oc3ccccc3C2=O)C1=O | > 200 | 87.1 |  |
| CCCCCCCCCCCCCCCC=C(c1cc(Br)cc(C(=O)O)c1OC)c1cc(Br)cc(C(=O)O)c1OC | > 1070 | 24 |  |
| O=C1CCC(=O)Nc2ccccc2-c2ccccc2N1 |  |  | inactive |
| Cc1ccsc1/C=N/Nc1cc(C)c2cccc(C)c2n1 | > 200 | 138 |  |
| Cc1cn(C2CC(N=[N+]=[N-])C(COC(=O)C3CCC(=O)N3)O2)c(=O)[nH]c1=O (stereo not given) |  | 49 | active |
| CC1OC1C(=O)P(=O)(O)O (stereo not given) | > 200 | > 200 |  |
| C#Cc1c(C)c(/C=C/C(C)=C/C(=O)OC)n(C)c1C |  |  | inactive |
| COc1c2c(cc3ccc(=O)oc13)CCO2 | > 204 | > 204 |  |
| CC(=O)C(N=NC1CCC(S(=O)(=O)NB2N=CS2)CC1)C(=O)Nc1ccccc1C (stereo not given) | > 11.5 | > 11.5 |  |
| O=C(O)CN=c1c2ccccc2n(O)c2ccccc12 |  |  | inactive |
| O=C1c2c(O)cccc2Cc2cc(CO)cc(O)c21 | > 200 | 0.933 |  |

Source: PubChem BioAssay AID179 (DTP/NCI, 2004)
